Measured values taken from patent US10375956B2, “Herbicidally active 2-(substituted-phenyl)-cyclopentane-1,3-dione compounds and derivatives thereof” (Syngenta Limited, priority 2013, dated 2019).

Experiments:
Assay type in all cases: in vivo
[1] = test system: Alopecurus myosuroides (ALOMY); assay: Test 2 glasshouse assay (IF50 formulation, X-77), post-emergence herbicidal activity; settings: 360 h, 15 DAA, visual score, read-out: Post-emergence herbicidal activity (percentage phytotoxicity) ALOMY; for pest or weed control at 30 g/ha: application rate 30 g/ha
Summary of the method: (§1)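 Plants in soil pots were sprayed 1 day (pre-emergence) or ~12 days (post-emergence) after sowing with IF50 formulation diluted in 0.2% v/v X-77. Cool species were grown at 20/16 °C day/night, 16 h light, 65% humidity. Visual % phytotoxicity was scored at 20DAA (pre) or 15DAA (post).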

Avena fatua (AVEFA) = assay: as above; settings: 360 h, 15 DAA, visual score, read-out: Post-emergence herbicidal activity (percentage phytotoxicity) AVEFA; for pest or weed control at 30 g/ha: application rate 30 g/ha
Summary of the method: as §1

Lolium perenne (LOLPE) [2] = assay: as above; settings: 360 h, 15 DAA, visual score, read-out: Post-emergence herbicidal activity (percentage phytotoxicity) LOLPE; for pest or weed control at 30 g/ha: application rate 30 g/ha
Summary of the method: as §1

[3] = test system: Amaranthus retroflexus (AMARE); assay: Test 1 glasshouse assay, post-emergence herbicidal activity; settings: 312 h, post-emergence (Example 1B Table 1), after 13 days, read-out: Percentage phytotoxicity AMARE
Summary of the method: (§2)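 Plants sprayed post-emergence after 8 days' growth with active ingredient in acetone/water (50:50) plus 0.5% Tween 20; glasshouse at 24/16° C day/night, 14 h light, 65% humidity. Visual percentage phytotoxicity scored 13 days later (100% = total damage, 0% = none).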

Setaria faberi (SETFA) [4] = assay: as above; settings: 312 h, post-emergence (Example 1B Table 1), after 13 days, read-out: Percentage phytotoxicity SETFA
Summary of the method: as §2

[5] = test system: Abutilon theophrasti (ABUTH); assay: as above; settings: 312 h, post-emergence (Example 1B Table 1), after 13 days, read-out: Percentage phytotoxicity ABUTH
Summary of the method: as §2

[6] = test system: Zea mays (ZEAMX, corn/maize); assay: as above; settings: 312 h, post-emergence (Example 1B Table 1), after 13 days, read-out: Percentage phytotoxicity ZEAMX
Summary of the method: as §2

Lolium perenne (LOLPE) [7] = assay: Test 2 glasshouse assay (IF50 formulation, X-77), pre-emergence herbicidal activity; settings: 480 h, 250 g/ha, 20DAA, read-out: Percentage phytotoxicity LOLPE
Summary of the method: as §1

[8] = test system: Digitaria sanguinalis (DIGSA); assay: as above; settings: 480 h, 250 g/ha, 20DAA, read-out: Percentage phytotoxicity DIGSA
Summary of the method: (§3)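 Test plants were sown in pots of standard soil and cultivated for one day (pre-emergence) or about 12 days (post-emergence) under controlled glasshouse conditions. An aqueous spray with IF50 and 0.2% v/v X-77 was then applied. Damage was rated visually as percentage phytotoxicity 20 days (pre) or 15 days (post) later.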

[9] = test system: Echinochloa crus-galli (ECHCG); assay: as above; settings: 480 h, 250 g/ha, 20DAA, read-out: Percentage phytotoxicity ECHCG
Summary of the method: as §3

[10] = test system: Sorghum vulgare Pers. (SORVU); assay: as above; settings: Sorghum bicolor, 480 h, 250 g/ha, 20DAA, read-out: Percentage phytotoxicity SORVU
Summary of the method: as §3

Setaria faberi (SETFA) [11] = assay: as above; settings: 480 h, 250 g/ha, 20DAA, read-out: Percentage phytotoxicity SETFA
Summary of the method: as §3

[12] = test system: Brachiaria plantaginea (BRAPL); assay: as above; settings: Urochloa plantaginea, 480 h, 250 g/ha, 20DAA, read-out: Percentage phytotoxicity BRAPL
Summary of the method: as §3

[13] = test system: Panicum miliaceum (PANMI); assay: as above; settings: 480 h, 250 g/ha, 20DAA, read-out: Percentage phytotoxicity PANMI
Summary of the method: as §3

SMILES	pest or weed control at 30 g/ha [1] [%]	pest or weed control at 30 g/ha (Avena fatua (AVEFA)) [%]	pest or weed control at 30 g/ha (Lolium perenne (LOLPE) [2]) [%]	pest or weed control at 250 g/ha [3] [%]	pest or weed control at 250 g/ha (Setaria faberi (SETFA) [4]) [%]	pest or weed control at 250 g/ha [5] [%]	pest or weed control at 250 g/ha [6] [%]	pest or weed control at 250 g/ha (Lolium perenne (LOLPE) [7]) [%]	pest or weed control at 250 g/ha [8] [%]	pest or weed control at 250 g/ha [9] [%]	pest or weed control at 250 g/ha [10] [%]	pest or weed control at 250 g/ha (Setaria faberi (SETFA) [11]) [%]	pest or weed control at 250 g/ha [12] [%]	pest or weed control at 250 g/ha [13] [%]	also measured
C#CCC1CC(=O)C(c2c(Cl)cc(-c3ccc(F)cc3F)cc2OC)C1=O (stereo not drawn) [Compound A12]	60	10	30	80	100	80	100	100	100	80	90	100	100	100	pest or weed control at 125 g/ha ([1]; application rate 125 g/ha): 80%; pest or weed control at 125 g/ha (Avena fatua (AVEFA); application rate 125 g/ha): 80%; pest or weed control at 125 g/ha (Lolium perenne (LOLPE) [2]; application rate 125 g/ha): 90%; pest or weed control at 30 g/ha ([3]; 30 g/ha): 30%; pest or weed control at 30 g/ha (Setaria faberi (SETFA) [4]; 30 g/ha): 100%; pest or weed control at 30 g/ha ([5]; 30 g/ha): 50%; pest or weed control at 30 g/ha ([6]; 30 g/ha): 100%
C#CCC1CC(=O)C(c2c(C)cc(-c3ccc(Cl)cn3)cc2C)C1=O (stereo not drawn) [Compound A2]	20	60	30	70	100	80	100	80	70	80	80	90	80	100	pest or weed control at 250 g/ha ([1]; application rate 250 g/ha): 100%; pest or weed control at 250 g/ha (Avena fatua (AVEFA); application rate 250 g/ha): 90%; pest or weed control at 250 g/ha (Lolium perenne (LOLPE) [2]; application rate 250 g/ha): 90%; pest or weed control at 62.5 g/ha ([3]; 62.5 g/ha): 70%; pest or weed control at 62.5 g/ha (Setaria faberi (SETFA) [4]; 62.5 g/ha): 100%; pest or weed control at 62.5 g/ha ([5]; 62.5 g/ha): 70%; pest or weed control at 62.5 g/ha ([6]; 62.5 g/ha): 100%
